Experimental data as given in publication PMC9299836 (eLife, 2022).
“And” between values parts separate entries of the source, which are not always exact repeats. Identical values can stand only once. Like-named read-outs stand apart in the source and are kept apart here.

Key:
mGluR2 [1] = target: T1, mGluR2 (Mus musculus, UniProt Q14BI2); assay: Functional calcium imaging, SNAP-mGluR2 (no FLAG-tag) with chimeric G protein Gqo5 in HEK293T cells; format: cell-based; design: Full length mGluR2 construct with an amber codon (TAG) mutation of amino acid A548 (azi-CRD) or N-terminal SNAP-tag (SNAP-mGluR2); host or cells: HEK293T; details: for Intracellular Ca2+ response, Mean / Intracellular Ca2+ response: normalized to 1mM glutamate; for Intracellular Ca2+ response: single experiments
T1 sequence (Q14BI2 19-872): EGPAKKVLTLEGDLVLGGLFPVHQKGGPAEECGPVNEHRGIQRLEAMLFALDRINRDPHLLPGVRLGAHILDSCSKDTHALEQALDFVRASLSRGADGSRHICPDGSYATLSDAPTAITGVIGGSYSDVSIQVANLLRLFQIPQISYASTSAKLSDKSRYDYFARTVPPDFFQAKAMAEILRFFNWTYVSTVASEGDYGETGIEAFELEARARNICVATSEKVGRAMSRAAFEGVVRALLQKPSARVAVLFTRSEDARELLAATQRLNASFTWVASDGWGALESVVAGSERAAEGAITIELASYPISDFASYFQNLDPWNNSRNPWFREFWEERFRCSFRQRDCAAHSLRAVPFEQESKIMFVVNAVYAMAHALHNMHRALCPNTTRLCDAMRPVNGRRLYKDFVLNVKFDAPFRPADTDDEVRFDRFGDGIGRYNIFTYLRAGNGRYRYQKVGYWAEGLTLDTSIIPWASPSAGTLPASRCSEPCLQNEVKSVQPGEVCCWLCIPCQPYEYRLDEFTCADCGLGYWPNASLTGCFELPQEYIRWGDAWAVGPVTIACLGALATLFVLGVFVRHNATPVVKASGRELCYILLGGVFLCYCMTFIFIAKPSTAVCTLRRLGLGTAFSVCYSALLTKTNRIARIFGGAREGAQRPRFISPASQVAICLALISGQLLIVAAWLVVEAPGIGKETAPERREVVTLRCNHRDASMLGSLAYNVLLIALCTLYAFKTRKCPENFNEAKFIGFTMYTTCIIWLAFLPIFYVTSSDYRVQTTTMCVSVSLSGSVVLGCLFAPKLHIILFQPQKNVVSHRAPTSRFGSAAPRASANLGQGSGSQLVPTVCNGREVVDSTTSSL

mGluR2 [2] = target: mGluR2 (Mus musculus, UniProt Q14BI2, INS715F); assay: Live-cell FRET, azi-ECL2 (7TM domain, extracellular loop 2) sensor in HEK293T cells;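 note: Cy3/Cy5 click-labeled sensor, whole-membrane ROIs per cell, apparent FRET after bleed-through correction, ΔFRET as treatment minus pre-treatment signal, at room temperature, at least three biological replicates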
Chain of mGluR2 (Mus musculus, UniProt Q14BI2, INS715F) (Q14BI2 with tags, fused parts or gaps INS715F): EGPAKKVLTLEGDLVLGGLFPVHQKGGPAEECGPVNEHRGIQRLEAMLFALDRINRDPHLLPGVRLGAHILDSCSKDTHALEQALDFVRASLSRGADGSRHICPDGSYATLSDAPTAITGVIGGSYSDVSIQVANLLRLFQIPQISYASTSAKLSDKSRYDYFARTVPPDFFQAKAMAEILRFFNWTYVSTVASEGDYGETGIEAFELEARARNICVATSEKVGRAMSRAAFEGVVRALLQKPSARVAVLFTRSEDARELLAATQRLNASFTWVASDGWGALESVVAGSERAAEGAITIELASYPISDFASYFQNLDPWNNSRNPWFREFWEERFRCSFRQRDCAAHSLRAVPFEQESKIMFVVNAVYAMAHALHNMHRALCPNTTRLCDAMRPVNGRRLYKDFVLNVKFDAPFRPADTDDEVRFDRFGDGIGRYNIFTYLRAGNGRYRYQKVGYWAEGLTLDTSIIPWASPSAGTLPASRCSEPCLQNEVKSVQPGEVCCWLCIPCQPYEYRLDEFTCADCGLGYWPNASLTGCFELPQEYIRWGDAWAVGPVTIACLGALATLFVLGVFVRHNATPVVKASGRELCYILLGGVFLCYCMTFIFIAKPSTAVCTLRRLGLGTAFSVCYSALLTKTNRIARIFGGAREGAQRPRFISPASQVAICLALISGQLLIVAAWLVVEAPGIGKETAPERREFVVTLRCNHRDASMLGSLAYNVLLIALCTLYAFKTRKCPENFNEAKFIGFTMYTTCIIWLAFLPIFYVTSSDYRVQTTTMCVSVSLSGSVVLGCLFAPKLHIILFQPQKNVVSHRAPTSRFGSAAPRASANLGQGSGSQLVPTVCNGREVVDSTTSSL

mGluR2 [3] = target: T1, mGluR2; assay: Live-cell FRET, SNAP-m2 (VFT domain) inter-subunit sensor in HEK293T cells; details: for Normalized FRET response, Mean (SNAP-m2 agonist DRC): maximal responses normalized to 1mM glutamate;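 for all read-outs here: apparent FRET efficiency from whole-membrane ROIs of single cells, corrected for donor bleed-through and background, ΔFRET as treatment minus pretreatment signal, recorded at room temperature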
mGluR2 [4] = target: mGluR2 (Mus musculus, UniProt Q14BI2, A548F); assay: Live-cell FRET, azi-CRD (cysteine-rich domain) sensor in HEK293T cells; details: for Normalized FRET response, Mean (azi-CRD agonist DRC): maximal responses normalized to 1mM glutamate
Chain of mGluR2 (Mus musculus, UniProt Q14BI2, A548F) (Q14BI2 19-872 A548F): as the sequence (Q14BI2 19-872) above, with A530F counted along it

Normalized Max Intracellular Ca2+ Response, individual experiments (mGluR2 [1]; 100 μM DCG-IV, 10 μM LY379268, 300 μM APDC, normalized to 1 mM glutamate, single replicate): 0.684 and 0.6918 and 0.7087
Normalized Max Intracellular Ca2+ Response, mean (mGluR2 [1]; 1 mM Glu, 100 μM DCG-IV, 10 μM LY379268, 300 μM APDC, normalized to 1 mM glutamate): 0.6948
efficacy relative to glutamate efficacy (mGluR2 [1]; functional calcium imaging assay): 69%
Intracellular Ca2+ response, Mean (mGluR2 [1]; log[agonist] (M) -4): 0.6948
Intracellular Ca2+ response (mGluR2 [1]; log[agonist] (M) -4): 0.6948
Intracellular Ca2+ response, Mean (mGluR2 [1]; log[agonist] (M) -4.52288): 0.7042
Intracellular Ca2+ response (mGluR2 [1]; log[agonist] (M) -4.52288): 0.7332 and 0.6724 and 0.7069
Intracellular Ca2+ response, Mean (mGluR2 [1]; log[agonist] (M) -5): 0.632
Intracellular Ca2+ response (mGluR2 [1]; log[agonist] (M) -5): 0.631 and 0.6318 and 0.6332
Intracellular Ca2+ response, Mean (mGluR2 [1]; log[agonist] (M) -5.39794): 0.5754
Intracellular Ca2+ response (mGluR2 [1]; log[agonist] (M) -5.39794): 0.5417 and 0.5882 and 0.5962
Intracellular Ca2+ response, Mean (mGluR2 [1]; log[agonist] (M) -5.82391): 0.3655
Intracellular Ca2+ response (mGluR2 [1]; log[agonist] (M) -5.82391): 0.2777 and 0.362 and 0.4567
Intracellular Ca2+ response, Mean (mGluR2 [1]; log[agonist] (M) -6): 0.3093
Intracellular Ca2+ response (mGluR2 [1]; log[agonist] (M) -6): 0.2196 and 0.3072 and 0.4011
Intracellular Ca2+ response, Mean (mGluR2 [1]; log[agonist] (M) -6.52288): 0.06286
Intracellular Ca2+ response, Mean (mGluR2 [1]; log[agonist] (M) -7): 0
Intracellular Ca2+ response (mGluR2 [1]; log[agonist] (M) -7): 0
Intracellular Ca2+ response, Mean (mGluR2 [1]; log[agonist] (M) -8): 0
Intracellular Ca2+ response (mGluR2 [1]; log[agonist] (M) -8): 0
efficacy relative to glutamate efficacy (mGluR2 [2]; ECL2 sensor): 64%
Mean max response (normalized max ΔFRET) (mGluR2 [2]; azi-ECL2, agonist alone (1 mM glutamate, 100 μM DCG-IV, 20 μM LY379268, 100 μM APDC), normalized to 1 mM glutamate): 0.64
Normalized ΔFRET response, Mean (agonist DRC) (mGluR2 [2]; azi-ECL2, log[agonist] (M) -4, normalized to 1 mM glutamate): 0.6388
Normalized ΔFRET response, Mean (agonist DRC) (mGluR2 [2]; azi-ECL2, log[agonist] (M) -4.52288, normalized to 1 mM glutamate): 0.6117
Normalized ΔFRET response, Mean (agonist DRC) (mGluR2 [2]; azi-ECL2, log[agonist] (M) -5, normalized to 1 mM glutamate): 0.5883
Normalized ΔFRET response, Mean (agonist DRC) (mGluR2 [2]; azi-ECL2, log[agonist] (M) -5.39794, normalized to 1 mM glutamate): 0.5288
Normalized ΔFRET response, Mean (agonist DRC) (mGluR2 [2]; azi-ECL2, log[agonist] (M) -5.82391, normalized to 1 mM glutamate): 0.4325
Normalized ΔFRET response, Mean (agonist DRC) (mGluR2 [2]; azi-ECL2, log[agonist] (M) -6.09691, normalized to 1 mM glutamate): 0.3472
Normalized ΔFRET response, Mean (agonist DRC) (mGluR2 [2]; azi-ECL2, log[agonist] (M) -6.52288, normalized to 1 mM glutamate): 0.1978
Normalized ΔFRET response, Mean (agonist DRC) (mGluR2 [2]; azi-ECL2, log[agonist] (M) -7, normalized to 1 mM glutamate): 0.04555
Normalized ΔFRET response, Mean (agonist DRC) (mGluR2 [2]; azi-ECL2, log[agonist] (M) -7.30103, normalized to 1 mM glutamate): 0.01237
Normalized ΔFRET response, Mean (agonist DRC) (mGluR2 [2]; azi-ECL2, log[agonist] (M) -7.69897, normalized to 1 mM glutamate): 0
Normalized Max ΔFRET, Mean (mGluR2 [2]; azi-ECL2, 100μM agonist, mean of cells, normalized to 1mM glutamate): 63.8832
Hill slope (mGluR2 [2]; azi-ECL2 sensor, orthosteric agonist alone): 1.05
EC50 (mGluR2 [2]; read-out: EC50, live-cell FRET titration, azi-ECL2 sensor, DCG-IV, individual cell values (N=24)): 407 nM and 1580 nM and 2080 nM and 2050 nM and 1660 nM and 1520 nM and 1840 nM and 2020 nM and 1160 nM and 2070 nM and 563 nM and 325 nM and 399 nM and 405 nM and 280 nM and 445 nM and 366 nM and 629 nM and 300 nM and 459 nM and 417 nM and 327 nM and 390 nM and 398 nM
EC50 (mGluR2 [2]; read-out: Mean half-maximum effective concentration (EC50), azi-ECL2 sensor, orthosteric agonist alone): 900 nM
Mean max response (normalized max ΔFRET) (mGluR2 [3]; SNAP-m2 (VFT), agonist alone (1 mM glutamate, 100 μM DCG-IV, 20 μM LY379268, 100 μM APDC), normalized to 1 mM glutamate): 0.79
Normalized Max ΔFRET, Mean (mGluR2 [3]; SNAP-m2, 100μM agonist, mean of cells, normalized to 1mM glutamate): 78.7384
Hill slope (mGluR2 [3]; SNAP-m2 sensor, orthosteric agonist alone): –1.26
efficacy relative to glutamate efficacy (mGluR2 [3]; VFT domain FRET sensor): 79%
Normalized FRET response, Mean (SNAP-m2 agonist DRC) (mGluR2 [3]; log[ligand] (M) -4): -0.7874
Normalized FRET response, Mean (SNAP-m2 agonist DRC) (mGluR2 [3]; log[ligand] (M) -4.52288): -0.8342
Normalized FRET response, Mean (SNAP-m2 agonist DRC) (mGluR2 [3]; log[ligand] (M) -5): -0.8388
Normalized FRET response, Mean (SNAP-m2 agonist DRC) (mGluR2 [3]; log[ligand] (M) -5.39794): -0.8023
Normalized FRET response, Mean (SNAP-m2 agonist DRC) (mGluR2 [3]; log[ligand] (M) -5.82391): -0.7016
Normalized FRET response, Mean (SNAP-m2 agonist DRC) (mGluR2 [3]; log[ligand] (M) -6.09691): -0.5309
Normalized FRET response, Mean (SNAP-m2 agonist DRC) (mGluR2 [3]; log[ligand] (M) -6.52288): -0.3457
Normalized FRET response, Mean (SNAP-m2 agonist DRC) (mGluR2 [3]; log[ligand] (M) -7): -0.1181
Normalized FRET response, Mean (SNAP-m2 agonist DRC) (mGluR2 [3]; log[ligand] (M) -7.30103): -0.04846
Normalized FRET response, Mean (SNAP-m2 agonist DRC) (mGluR2 [3]; log[ligand] (M) -7.69897): 0
EC50 (mGluR2 [3]; read-out: Live-cell FRET titration EC50, SNAP-m2, agonist alone, individual experiments): 601 nM and 624 nM and 283 nM and 314 nM and 294 nM and 323 nM
EC50 (mGluR2 [3]; read-out: Mean half-maximum effective concentration (EC50), SNAP-m2 sensor, orthosteric agonist alone): 400 nM
efficacy relative to glutamate efficacy (mGluR2 [4]; CRD sensor): 69%
Hill slope (mGluR2 [4]; azi-CRD sensor, orthosteric agonist alone): 0.94
Mean max response (normalized max ΔFRET) (mGluR2 [4]; azi-CRD, agonist alone (1 mM glutamate, 100 μM DCG-IV, 20 μM LY379268, 100 μM APDC), normalized to 1 mM glutamate): 0.69
Normalized Max ΔFRET, Mean (mGluR2 [4]; azi-CRD, 100μM agonist, mean of cells, normalized to 1mM glutamate): 69.3017
Normalized FRET response, Mean (azi-CRD agonist DRC) (mGluR2 [4]; log[ligand] (M) -4): 0.693
Normalized FRET response, Mean (azi-CRD agonist DRC) (mGluR2 [4]; log[ligand] (M) -4.1549): 0.638
Normalized FRET response, Mean (azi-CRD agonist DRC) (mGluR2 [4]; log[ligand] (M) -4.52288): 0.594
Normalized FRET response, Mean (azi-CRD agonist DRC) (mGluR2 [4]; log[ligand] (M) -5): 0.6438
Normalized FRET response, Mean (azi-CRD agonist DRC) (mGluR2 [4]; log[ligand] (M) -5.39794): 0.5492
Normalized FRET response, Mean (azi-CRD agonist DRC) (mGluR2 [4]; log[ligand] (M) -5.82391): 0.4312
Normalized FRET response, Mean (azi-CRD agonist DRC) (mGluR2 [4]; log[ligand] (M) -6): 0.3274
Normalized FRET response, Mean (azi-CRD agonist DRC) (mGluR2 [4]; log[ligand] (M) -6.52288): 0.164
Normalized FRET response, Mean (azi-CRD agonist DRC) (mGluR2 [4]; log[ligand] (M) -7): 0.06087
Normalized FRET response, Mean (azi-CRD agonist DRC) (mGluR2 [4]; log[ligand] (M) -8): 0
EC50 (mGluR2 [4]; read-out: Live-cell FRET titration EC50, azi-CRD, agonist alone, individual experiments): 1530 nM and 1470 nM and 783 nM and 580 nM and 528 nM and 523 nM and 890 nM and 1360 nM and 1600 nM and 2080 nM
EC50 (mGluR2 [4]; read-out: Mean half-maximum effective concentration (EC50), azi-CRD sensor, orthosteric agonist alone): 1100 nM
Structure (SMILES): N[C@H](C(=O)O)C1[C@@H](C(=O)O)[C@@H]1C(=O)O (some centres unmarked) [DCG-IV]
Normalized Max ΔFRET (mGluR2 [2]; azi-ECL2, 100μM agonist, individual cells, normalized to 1mM glutamate): 75.6239 and 62.1009 and 89.9691 and 84.6273 and 55.3373 and 55.3387 and 55.3355 and 62.696 and 49.3687 and 57.2855 and 56.6756 and 63.6013 and 56.6982 and 53.3737 and 53.7969 and 61.9848 and 59.9837 and 58.1516 and 63.6225 and 66.6797 and 61.402 and 83.697 and 67.4032 and 68.3214 and 74.0066
Live-cell FRET max response normalized to 1mM glutamate (mGluR2 [2]; azi-ECL2 sensor, DCG-IV, individual values (N=25)): 0.614 and 0.837 and 0.674 and 0.6832 and 0.7401 and 0.621 and 0.8997 and 0.8463 and 0.5534 (3×) and 0.627 and 0.4937 and 0.5728 and 0.5668 and 0.567 and 0.5337 and 0.538 and 0.6199 and 0.5998 and 0.5815 and 0.7562 and 0.636 and 0.6362 and 0.6668
Normalized Max ΔFRET (mGluR2 [3]; SNAP-m2, 100μM agonist, individual cells, normalized to 1mM glutamate): 84.7663 and 70.8926 and 74.3888 and 73.8095 and 75.8105 and 75.3951 and 75.9881 and 74.211 and 74.4971 and 73.9262 and 75.3591 and 85.075 and 75.8448 and 76.6206 and 81.7136 and 78.0427 and 77.2768 and 74.1653 and 84.8254 and 80.7786 and 86.2145 and 83.3004 and 84.7137 and 86.1165 and 84.7264
Live-cell FRET max response normalized to 1mM glutamate (mGluR2 [3]; SNAP-m2 sensor, DCG-IV, individual values (N=25)): 0.8621 and 0.833 and 0.8471 and 0.8612 and 0.8473 and 0.7089 and 0.7439 and 0.7381 and 0.7581 and 0.754 and 0.7599 and 0.7421 and 0.745 and 0.7393 and 0.7536 and 0.7584 and 0.7662 and 0.8171 and 0.7804 and 0.7728 and 0.7417 and 0.8477 and 0.8508 and 0.8482 and 0.8078
Live-cell FRET max response normalized to 1mM glutamate (mGluR2 [4]; azi-CRD sensor, DCG-IV, individual values (N=19)): 0.7559 and 0.727 and 0.7189 and 0.7035 and 0.632 and 0.6169 and 0.7378 and 0.6793 and 0.6073 and 0.6642 and 0.7117 and 0.7276 and 0.6566 and 0.7993 and 0.7099 and 0.6625 and 0.714 and 0.6368 and 0.7062
Normalized Max ΔFRET (mGluR2 [4]; azi-CRD, 100μM agonist, individual cells, normalized to 1mM glutamate): 66.2522 and 61.6858 and 73.7778 and 67.9245 and 60.7306 and 66.4234 and 71.1688 and 72.7619 and 65.6646 and 79.932 and 70.9877 and 71.4032 and 63.6793 and 70.615 and 75.5857 and 72.6994 and 71.8894 and 70.347 and 63.2035
